The results in this text go back to US11834460B2, “Imide-based modulators of proteolysis and associated methods of use” (YALE UNIVERSITY, priority 2018, dated 2023).

This experiment concerns c-Myc. As to the kind of experiment: c-Myc ELISA assay protocol in 22RV-1 cells. The format is cell-based, human. The settings on record: 18 h, read-out: cMyc IC50. Here is the method: In each bioassay, cells were treated with varying amounts of compounds encompassed by the present disclosure, as shown in Table 1. The degradation of the following proteins were evaluated in this study: TANK-binding kinase 1 (TBK1), estrogen receptor α (ERα), bromodomain-containing protein 4 (BRD4), androgen receptor (AR), and c-Myc.
5. c-Myc ELISA Assay Protocol
22RV-1 cells were purchased from ATCC and cultured in RPMI+10% FBS media. Cells were harvested using trypsin (Gibco #25200-114), counted and seeded at 30,000 cells/well at a volume of 75 μL/well in RPMI +10% FBS media in 96-well plates. The cells were dosed with compounds diluted in 0.1% DMSO, incubated for 18 h then washed and lysed in 50 uL RIPA buffer (50 mM Tris pH8, 150 mM NaCl, 1% Tx-100, 0.1% SDS, 0.5% sodium deoxycholate) supplemented with protease and phosphatase inhibitors. The lysates were clarified at 4000 rpm at 4° C. for 10 minutes then aliquots were added into a 96-well ELISA plate of Novex Human c-myc ELISA kit from Life Technologies Catalog #KHO2041. 50 ul of c-Myc Detection antibody was added into every well, the plates incubated at room temperature for 3 hrs, then washed with ELISA wash buffer. 100 uL of the anti-rabbit IgG-HRP secondary antibody was added to each well and incubated at room temperature for 30 minutes. The plates were washed with ELISA wash buffer, 100 μL TMB added to each well, and then monitored every 5 minutes for a color change. 100 μL of stop solution is added and the plates read at 450 nm.

A value given as a limit tells only on which side of the number the result lay.

A word on the IC50: it is the concentration needed to halve the response being measured. `Cc1sc2c(c1C)C(c1ccc(Cl)cc1)=N[C@@H](CC(=O)Nc1cnc(-c3ccc(OCCCNc4cccc5c4C(=O)N(C4CCC(=O)NC4=O)C5=O)cc3)nc1)c1nnc(C)n1-2` (stereo partly drawn) [Compound 31, 2-((9S)-7-(4-chlorophenyl)-4,5,13-trimethyl-3-thia-1,8,11,12-tetraazatricyclo [8.3.0.02,6]trideca-2(6),4,7,10, 12-pentaen-9-yl)-N-(2-(4-(3-((2-(2,6-dioxopiperidin-3-yl)-1,3-dioxo-2,3-dihydro-1H-isoindol-4-yl)amino)propoxy)phenyl)pyrimidin-5-yl)acetamide]: the IC50 was < 50 nM.

Turning to `Cc1sc2c(c1C)C(c1ccc(Cl)cc1)=N[C@@H](CC(=O)Nc1ccc(OCCCOCCNc3cccc4c3C(=O)N(C3CCC(=O)NC3=O)C4=O)c(F)c1)c1nnc(C)n1-2` (stereo partly drawn) [Compound 32, 2-((9S)-7-(4-chlorophenyl)-4,5,13-trimethyl-3-thia-1,8,11,12-tetraazatricyclo [8.3.0.02,6]trideca-2(6),4,7,10, 12-pentaen-9-yl)-N-(4-(3-(2-((2-(2,6-dioxopiperidin-3-yl)-1,3-dioxo-2,3-dihydro-1H-isoindol-4-yl)amino)ethoxy)propoxy)-3-fluorophenyl) acetamide], the IC50 is < 50 nM.

For `Cc1sc2c(c1C)C(c1ccc(Cl)cc1)=N[C@@H](CC(=O)Nc1ccc(OCCCCOCCCNc3cccc4c3C(=O)N(C3CCC(=O)NC3=O)C4=O)cc1F)c1nnc(C)n1-2` (stereo partly drawn) [Compound 33, 2-((9S)-7-(4-chlorophenyl)-4,5,13-trimethyl-3-thia-1,8,11,12-tetraazatricyclo [8.3.0.02,6]trideca-2(6),4,7,10, 12-pentaen-9-yl)-n-(4-(4-(3-((2-(2,6-dioxopiperidin-3-yl)-1,3-dioxo-2,3-dihydro-1h-isoindol-4-yl)amino)propoxy)butoxy)-2-fluorophenyl) acetamide], the half-inhibitory concentration (IC50) was < 50 nM.

Turning to `Cc1sc2c(c1C)C(c1ccc(Cl)cc1)=N[C@@H](CC(=O)Nc1ccc(OCCCCOCCCNc3cccc4c3C(=O)N(C3CCC(=O)NC3=O)C4=O)c(F)c1)c1nnc(C)n1-2` (stereo partly drawn) [Compound 34, 2-((9S)-7-(4-chlorophenyl)-4,5,13-trimethyl-3-thia-1,8,11,12-tetraazatricyclo [8.3.0.02,6]trideca-2(6),4,7,10, 12-pentaen-9-yl)-N-(4-(4-(3-((2-(2,6-dioxopiperidin-3-yl)-1,3-dioxo-2,3-dihydro-1H-isoindol-4-yl)amino)propoxy)butoxy)-3-fluorphenyl) acetamide], the IC50 was < 50 nM.

With `Cc1sc2c(c1C)C(c1ccc(Cl)cc1)=N[C@H](CC(=O)Nc1ccc(OCCOCCOCCOCCNc3cccc4c3CN(C3CCC(=O)NC3=O)C4=O)cc1)c1nnc(C)n1-2` (stereo partly drawn) [Compound 35, 2-((9R)-7-(4-chlorophenyl)-4,5,13-trimethyl-3-thia-1,8,11,12-tetraazatricyclo [8.3.0.02,6]trideca-2(6),4,7,10, 12-pentaen-9-yl)-N-(4-((1-(2-(2,6-dioxopiperidin-3-yl)-1-oxo-2,3-dihydro-1H-isoindol-4-yl)-4,7,10-trioxa-1-azadodecan-12-yl)oxy)phenyl) acetamide], the IC50 is < 50 nM.

In the case of `Cc1sc2c(c1C)C(c1ccc(Cl)cc1)=N[C@@H](CC(=O)N[C@@H](C)c1ccc(-c3ncc(OCCOCCNc4cccc5c4C(=O)N(C4CCC(=O)NC4=O)C5=O)cn3)cc1)c1nnc(C)n1-2` (stereo partly drawn) [Compound 36, 2-[(9S)-7-(4-chlorophenyl)-4,5,13-trimethyl-3-thia-1,8,11,12-tetraazatricyclo [8.3.0.0^2,^6]trideca-2(6),4,7,10,12-pentaen-9-yl]-N-[(1S)-1-(4-{5-[2-(2-{[2-(2,6-dioxopiperidin-3-yl)-1,3-dioxo-2,3-dihydro-1H-isoindol-4-yl]amino}ethoxy)ethoxy]pyrimidin-2-yl}phenyl)ethyl] acetamide], the IC50 was < 50 nM.

As to `Cc1sc2c(c1C)C(c1ccc(Cl)cc1)=N[C@@H](CC(=O)NCCOCCOCCNc1cccc3c1C(=O)N(C1CCC(=O)NC1=O)C3=O)c1nnc(C)n1-2` (stereo partly drawn) [Compound 37, 2-[(9S)-7-(4-chlorophenyl)-4,5,13-trimethyl-3-thia-1,8,11,12-tetraazatricyclo [8.3.0.0^2,^6]trideca-2(6),4,7,10,12-pentaen-9-yl]-N-{2-[2-(2-{[2-(2,6-dioxopiperidin-3-yl)-1,3-dioxo-2,3-dihydro-1H-isoindol-4-yl]amino}ethoxy)ethoxy]ethyl} acetamide], the IC50 was < 50 nM.

Take `Cc1sc2c(c1C)C(c1ccc(Cl)cc1)=N[C@@H](CC(=O)N[C@H](C)c1ccc(OCCOCCNc3cccc4c3CN(C3CCC(=O)NC3=O)C4=O)cc1)c1nnc(C)n1-2` (stereo partly shown) [Compound 38]: the IC50 was < 50 nM.

With `Cc1sc2c(c1C)C(c1ccc(Cl)cc1)=N[C@@H](CC(=O)NCCOCCNc1cccc3c1CN(C1CCC(=O)NC1=O)C3=O)c1nnc(C)n1-2` (stereo partly drawn) [Compound 39, 2-[(9S)-7-(4-chlorophenyl)-4,5,13-trimethyl-3-thia-1,8,11,12-tetraazatricyclo [8.3.0.0^2,^6]trideca-2(6),4,7,10,12-pentaen-9-yl]-N-[2-(2-{[2-(2,6-dioxopiperidin-3-yl)-1-oxo-2,3-dihydro-1H-isoindol-4-yl]amino}ethoxy)ethyl]acetamide], the IC50 is > 50 nM.

In the case of `Cc1sc2c(c1C)C(c1ccc(Cl)cc1)=N[C@@H](CC(=O)N[C@@H](C)c1ccc(-c3ncc(OCCCNc4cccc5c4C(=O)N(C4CCC(=O)NC4=O)C5=O)cn3)cc1)c1nnc(C)n1-2` (stereo partly drawn) [Compound 40, 2-((S)-4-(4-chlorophenyl)-2,3,9-trimethyl-6H-thieno[3,2-f][1,2,4]triazolo[4,3-a][1,4]diazepin-6-yl)-N-((1S)-1-(4-(5-(3-(2-(2,6-dioxopiperidin-3-yl)-1,3-dioxoisoindolin-4-ylamino)propoxy)pyrimidin-2-yl)phenyl)ethyl)acetamide], the half-maximal inhibitory concentration (IC50) was < 50 nM.

`Cc1sc2c(c1C)C(c1ccc(Cl)cc1)=N[C@@H](CC(=O)N[C@@H](C)c1ccc(OCCCOCCNc3cccc4c3C(=O)N(C3CCC(=O)NC3=O)C4=O)cc1)c1nnc(C)n1-2` (stereo partly drawn) [Compound 41, 2-[9S)-7-(4-chlorophenyl)-4,5,13-trimethyl-3-thia-1,8,11,12-tetraazatricyclo [8.3.0.0^2,^6]trideca-2(6),4,7,10,12-pentaen-9-yl]-N-[(1S)-1-{4-[3-(2-{[2-(2,6-dioxopiperidin-3-yl)-1,3-dioxo-2,3-dihydro-1H-isoindol-4-yl]amino}ethoxy)propoxyphenyl}ethyl]acetamide]: the IC50 is < 50 nM.

For `Cc1sc2c(c1C)C(c1ccc(Cl)cc1)=N[C@@H](CC(=O)N[C@@H](C)c1ccc(OCCOCCNc3cccc4c3CN(C3CCC(=O)NC3=O)C4=O)cc1)c1nnc(C)n1-2` (stereo partly shown) [Compound 42], the IC50 is < 50 nM.

`Cc1sc2c(c1C)C(c1ccc(Cl)cc1)=N[C@@H](CC(=O)NCCCCNc1cccc3c1C(=O)N(C1CCC(=O)NC1=O)C3=O)c1nnc(C)n1-2` (stereo partly drawn) [Compound 43, 2-[(9S)-7-(4-chlorophenyl)-4,5,13-trimethyl-3-thia-1,8,11,12-tetraazatricyclo [8.3.0.0^2,^6]trideca-2(6),4,7,10,12-pentaen-9-yl]-N-(4-{[2-(2,6-dioxopiperidin-3-yl)-1,3-dioxo-2,3-dihydro-1H-isoindol-4-yl]amino}butyl) acetamide]: the IC50 is > 50 nM.

With `Cc1nnc2n1C1=C(C(c3ccc(Cl)cc3)=N[C@H]2CC(=O)NCCCCCNc2cccc3c2C(=O)N(C2CCC(=O)NC2=O)C3=O)C(C)C(C)S1` (stereo partly drawn) [Compound 45, 2-[(9S)-7-(4-chlorophenyl)-4,5,13-trimethyl-3-thia-1,8,11,12-tetraazatricyclo [8.3.0.0^2,^6]trideca-2(6),4,7,10,12-pentaen-9-yl]-N-(5-{[2-(2,6-dioxopiperidin-3-yl)-1,3-dioxo-2,3-dihydro-1H-isoindol-4-yl]amino}pentyl) acetamide], the IC50 is < 50 nM.

In the case of `Cc1sc2c(c1C)C(c1ccc(Cl)cc1)=N[C@@H](CC(=O)NCCCNc1cccc3c1CN(C1CCC(=O)NC1=O)C3=O)c1nnc(C)n1-2` (stereo partly drawn) [Compound 46, 2-[(9S)-7-(4-chlorophenyl)-4,5,13-trimethyl-3-thia-1,8,11,12-tetraazatricyclo [8.3.0.0^2,^6]trideca-2(6),4,7,10,12-pentaen-9-yl]-N-(3-{[2-(2,6-dioxopiperidin-3-yl)-1-oxo-2,3-dihydro-1H-isoindol-4-yl]amino}propyl) acetamide], the IC50 is > 50 nM.

As to `Cc1sc2c(c1C)C(c1ccc(Cl)cc1)=N[C@@H](CC(=O)NCCCCNc1cccc3c1CN(C1CCC(=O)NC1=O)C3=O)c1nnc(C)n1-2` (stereo partly drawn) [Compound 47, 2-[(9S)-7-(4-chlorophenyl)-4,5,13-trimethyl-3-thia-1,8,11,12-tetraazatricyclo [8.3.0.0^2,^6]trideca-2(6),4,7,10,12-pentaen-9-yl]-N-(4-{[2-(2,6-dioxopiperidin-3-yl)-1-oxo-2,3-dihydro-1H-isoindol-4-yl]amino}butyl) acetamide], the IC50 is > 50 nM.
